The source of these data is US12084458B2, “Substituted pyridines, pyridazines, and pyrimidines as TYK2 inhibitors” (Sudo Biosciences Limited, priority 2021, dated 2024).

Experiment [1] deals with HEK-Blue IL-23 cells (IL-23-stimulated STAT3 SEAP reporter; TYK2 JH2). Nature of the experiment: HEK-Blue IL-23 SEAP reporter assay for profiling TYK2 pseudokinase (JH2) inhibition. It is filed as cell-based. The conditions noted are these: 10 ng/mL human recombinant IL-23, SEAP reporter, read-out: IL23 (TYK2 inhibitory activity, IC50). The procedure:
(§1) Example B-1: HEK-Blue™ IL-23 and IFNα/β Reporter Assays for Profiling TYK2 Pseudokinase (JH2) Inhibition
(§2) HEK-Blue™ IL-23 and IFNα/β cells with a stably-integrated cytokine receptor and STAT3 or STAT1 express STAT-inducible secreted embryonic alkaline phosphatase (SEAP) reporter gene upon cytokine stimulation. These cells are plated in DMEM (Gibco) containing 10% heat-inactivated FBS (Gibco) and 100 U/mL PenStrep (Gibco) at 37° C. under 5% CO2 conditions for 20-22 hours. The cells are then pretreated with serially diluted test compounds for 60 min prior to stimulation with either 10 ng/mL human recombinant IL-23 (Miltenyl Biotech) or 1 ng/mL human recombinant IFNα (InvivoGen) for 22-24 hours for IL-23 or 16-18 h for IFNα. SEAP induction is measured using the QUANTI Blue™ Solution (InvivoGen) according to the manufacturer's instructions.
(In general: In a reporter assay the amount or activity of a reporter protein is the signal.)

Experiment [2] deals with HEK-Blue IFNα/β cells (IFNα-stimulated STAT1 SEAP reporter; TYK2 JH2). Nature of the experiment: HEK-Blue IFNα/β SEAP reporter assay for profiling TYK2 pseudokinase (JH2) inhibition. It is filed as cell-based. Also noted: IFNα (TYK2 inhibitory activity, IC50): scale not given here. The conditions noted are these: 1 ng/mL human recombinant IFNα; for IC50: Homo sapiens, HEK-Blue, read-out: IFNα (TYK2 inhibitory activity, IC50). The procedure: as §1, §2

Where only a bound is given, the exact number is not on record here.

For orientation: IC50 means the concentration needed to halve the response being measured. For `[2H]C([2H])([2H])NC(=O)c1nnc(NC(=O)C2CC2)cc1Nc1cccc2c1N(C)[C@H](C)c1nc(C)nn1-2` (single isomer, unassigned) [Compound 23], the IC50 is under 30 nM in experiment [1] and 30 to 300 nM in experiment [2].

`[2H]C([2H])([2H])NC(=O)c1cnc(NC(=O)C2CC2)cc1Nc1cccc2c1N(C)[C@H](C)c1nc(C)nn1-2` (single isomer, unassigned) [Compound 24]: the IC50 is under 30 nM in experiment [1] and 30 to 300 nM in experiment [2].

`[2H]C([2H])([2H])NC(=O)c1cnc(NC(=O)C2CC2)cc1Nc1cccc2c1N(C)[C@H](C)c1nn(C)nc1-2` (single isomer, unassigned) [Compound 58]: the half-maximal inhibitory concentration (IC50) in experiment [1] is under 30 nM; in experiment [2], 300 to 1000 nM.

Take `[2H]C([2H])([2H])NC(=O)c1nnc(NC(=O)C2CC2)cc1Nc1cccc2c1N(C)[C@H](C)c1nn(C)nc1-2` (single isomer, unassigned) [Compound 59]: the values for the IC50 in experiment [1] and in experiment [2] were under 30 nM and 30 to 300 nM, respectively.

As to `[2H]C([2H])([2H])NC(=O)c1nnc(NC(=O)NC)cc1Nc1cccc2c1N(C)[C@H](C)c1nn(C)nc1-2` (single isomer, unassigned) [Compound 61], the values for the IC50 in experiment [1] and in experiment [2] were 30 to 300 nM and 300 to 1000 nM, respectively.

Take `[2H]C([2H])([2H])NC(=O)c1nnc(NC(=O)NC)cc1Nc1nccc2c1N(C)[C@H](C)c1nn(C)nc1-2` (single isomer, unassigned) [Compound 99]: the IC50 in experiment [1] and in experiment [2] was 30 to 300 nM throughout.

Consider `[2H]C([2H])([2H])NC(=O)c1cnc(NC(=O)C2CC2)cc1Nc1cc(F)cc2c1N(C)[C@H](C)c1nc(C)nn1-2` (single isomer, unassigned) [Compound 106], for which the IC50 in experiment [1] was 30 to 300 nM; in experiment [2], over 1000 nM.

Consider `[2H]C([2H])([2H])NC(=O)c1nnc(NC(=O)C2CC2)cc1Nc1cc(F)cc2c1N(C)[C@H](C)c1nc(C)nn1-2` (single isomer, unassigned) [Compound 109], for which the IC50 is 30 to 300 nM in experiment [1] and 300 to 1000 nM in experiment [2].

Consider `CNC(=O)c1nnc(Nc2ccc(F)cn2)cc1Nc1cccc2c1OCc1nc(C)nn1-2` [Compound 2, 6-((5-fluoropyridin-2-yl)amino)-N-methyl-4-((2-methyl-4H-benzo[b][1,2,4]triazolo[1,5-d][1,4]oxazin-6-yl)amino)pyridazine-3-carboxamide], for which the IC50 in experiment [1] and in experiment [2] was over 1000 nM in each case.

As for `CNC(=O)c1nnc(NC(=O)C2CC2)cc1Nc1cccc2c1OCc1nc(CO)nn1-2` [Compound 3, 6-(cyclopropanecarboxamido)-4-((2-(hydroxymethyl)-4H-benzo[b][1,2,4]triazolo[1,5-d][1,4]oxazin-6-yl)amino)-N-methylpyridazine-3-carboxamide], the IC50 in experiment [1] and in experiment [2] was over 1000 nM in each case.

On to `[2H]C([2H])([2H])NC(=O)c1nnc(NC(=O)CN2CCOCC2)cc1Nc1cccc2c1N(C)Cc1nc(C)nn1-2` [Compound 9, 4-((2,5-dimethyl-4,5-dihydro-[1,2,4]triazolo[1,5-a]quinoxalin-6-yl)amino)-N-(methyl-d3)-6-(2-morpholinoacetamido)pyridazine-3-carboxamide], for which the IC50 in experiment [1] is 30 to 300 nM. The “IFNα (TYK2 inhibitory activity, IC50)” value in experiment [2] is “C/D”.

For the compound `[2H]C([2H])([2H])NC(=O)c1nnc(NC(=O)CN(C)C)cc1Nc1cccc2c1N(C)Cc1nc(C)nn1-2` [Compound 14, 4-((2,5-dimethyl-4,5-dihydro-[1,2,4]triazolo[1,5-a]quinoxalin-6-yl)amino)-6-(2-(dimethylamino)acetamido)-N-(methyl-d3)pyridazine-3-carboxamide], the IC50 fell in the range of 30 to 300 nM in experiment [1] and 300 to 1000 nM in experiment [2].

With `[2H]C([2H])([2H])NC(=O)c1nnc(Nc2cc(C)cc(C)c2)cc1Nc1cccc2c1N(C)Cc1nc(C)nn1-2` [Compound 16, 4-((2,5-dimethyl-4,5-dihydro-[1,2,4]triazolo[1,5-a]quinoxalin-6-yl)amino)-6-((3,5-dimethylphenyl)amino)-N-(methyl-d3)pyridazine-3-carboxamide], the half-inhibitory concentration (IC50) in experiment [1] fell in the range of 30 to 300 nM. For the same compound, the “IFNα (TYK2 inhibitory activity, IC50)” value in experiment [2] is reported as “C/D”.

As to `[2H]C([2H])([2H])NC(=O)c1nnc(NC(=O)C(C)C)cc1Nc1cccc2c1N(C)Cc1nc(C)nn1-2` [Compound 17, 4-((2,5-dimethyl-4,5-dihydro-[1,2,4]triazolo[1,5-a]quinoxalin-6-yl)amino)-6-isobutyramido-N-(methyl-d3)pyridazine-3-carboxamide], the IC50 lay in the range of 30 to 300 nM in experiment [1] and 300 to 1000 nM in experiment [2].

With `[2H]C([2H])([2H])NC(=O)c1nnc(NC(=O)CC(F)(F)F)cc1Nc1cccc2c1N(C)Cc1nc(C)nn1-2` [Compound 18, 4-((2,5-dimethyl-4,5-dihydro-[1,2,4]triazolo[1,5-a]quinoxalin-6-yl)amino)-N-(methyl-d3)-6-(3,3,3-trifluoropropanamido)pyridazine-3-carboxamide], the IC50 is 30 to 300 nM in experiment [1] and 300 to 1000 nM in experiment [2].

As for `[2H]C([2H])([2H])NC(=O)c1nnc(NC(=O)N(C)C)cc1Nc1cccc2c1N(C)Cc1nc(C)nn1-2` [Compound 20, 4-((2,5-dimethyl-4,5-dihydro-[1,2,4]triazolo[1,5-a]quinoxalin-6-yl)amino)-6-(3,3-dimethylureido)-N-(methyl-d3)pyridazine-3-carboxamide], the IC50 in experiment [1] is 30 to 300 nM; in experiment [2], over 1000 nM.

As for `[2H]C([2H])([2H])NC(=O)c1cnc(NC(=O)C2CC2)nc1Nc1cccc2c1N(C)Cc1nc(C)nn1-2` [Compound 21, 2-(cyclopropanecarboxamido)-4-((2,5-dimethyl-4,5-dihydro-[1,2,4]triazolo[1,5-a]quinoxalin-6-yl)amino)-N-(methyl-d3)pyrimidine-5-carboxamide], the IC50 in experiment [1] and in experiment [2] was 30 to 300 nM in each case.

`[2H]C([2H])([2H])NC(=O)c1nnc(NC(=O)C2(F)CC2)cc1Nc1cccc2c1N(C)Cc1nc(C)nn1-2` [Compound 37, 4-((2,5-dimethyl-4,5-dihydro-[1,2,4]triazolo[1,5-a]quinoxalin-6-yl)amino)-6-(1-fluorocyclopropane-1-carboxamido)-N-(methyl-d3)pyridazine-3-carboxamide]: the results for the IC50 in experiment [1] and in experiment [2] were 30 to 300 nM and over 1000 nM, respectively.

Regarding `[2H]C([2H])([2H])NC(=O)c1nnc(NS(=O)(=O)C2CC2)cc1Nc1cccc2c1N(C)Cc1nc(C)nn1-2` [Compound 38, 6-(cyclopropanesulfonamido)-4-((2,5-dimethyl-4,5-dihydro-[1,2,4]triazolo[1,5-a]quinoxalin-6-yl)amino)-N-(methyl-d3)pyridazine-3-carboxamide], the IC50 in experiment [1] and in experiment [2] was over 1000 nM throughout.

In the case of `[2H]C([2H])([2H])NC(=O)c1nnc(NC(=O)[C@@H]2CC2(F)F)cc1Nc1cccc2c1N(C)Cc1nc(C)nn1-2` [Compound 41, (S)-6-(2,2-difluorocyclopropane-1-carboxamido)-4-((2,5-dimethyl-4,5-dihydro-[1,2,4]triazolo[1,5-a]quinoxalin-6-yl)amino)-N-(methyl-d3)pyridazine-3-carboxamide], the IC50 in experiment [1] and in experiment [2] was 30 to 300 nM throughout.

With `[2H]C([2H])([2H])NC(=O)c1nnc(NC(=O)[C@H]2CC2(F)F)cc1Nc1cccc2c1N(C)Cc1nc(C)nn1-2` [Compound 42, (R)-6-(2,2-difluorocyclopropane-1-carboxamido)-4-((2,5-dimethyl-4,5-dihydro-[1,2,4]triazolo[1,5-a]quinoxalin-6-yl)amino)-N-(methyl-d3)pyridazine-3-carboxamide], the IC50 in experiment [1] and in experiment [2] was 30 to 300 nM throughout.

Take `[2H]C([2H])([2H])NC(=O)c1nnc(NC(=O)C2CC2)cc1Nc1cccc2c1N(C)[C@@H](C([2H])([2H])[2H])c1nc(C)nn1-2` [Compound 43, (S)-6-(cyclopropanecarboxamido)-4-((2,5-dimethyl-4-(methyl-d3)-4,5-dihydro-[1,2,4]triazolo[1,5-a]quinoxalin-6-yl)amino)-N-(methyl-d3)pyridazine-3-carboxamide]: the figures for the IC50 in experiment [1] and in experiment [2] were 30 to 300 nM and 300 to 1000 nM, respectively.

For `[2H]C([2H])([2H])NC(=O)c1cnc(NC(=O)C2CC2)c(F)c1Nc1cccc2c1N(C)Cc1nn(C)nc1-2` [Compound 65, 6-(cyclopropanecarboxamido)-4-((2,5-dimethyl-4,5-dihydro-2H-[1,2,3]triazolo[4,5-c]quinolin-6-yl)amino)-5-fluoro-N-(methyl-d3)nicotinamide], in experiment [1], the IC50 fell in the range of 300 to 1000 nM. In addition, the “IFNα (TYK2 inhibitory activity, IC50)” value in experiment [2] is recorded as “C/D”.

For `CNC(=O)c1nnc(Nc2ccc(F)cn2)cc1Nc1cccc2c1OCCCn1cnnc1-2` [Compound 74, 4-((6,7-dihydro-5H-benzo[b][1,2,4]triazolo[3,4-d][1,5]oxazocin-9-yl)amino)-6-((5-fluoropyridin-2-yl)amino)-N-methylpyridazine-3-carboxamide], the IC50 in experiment [1] and in experiment [2] was over 1000 nM in each case.

Consider `CNC(=O)c1nnc(NC(=O)C2CC2)cc1Nc1cccc2c1OCCCn1cnnc1-2` [Compound 75, 6-(cyclopropanecarboxamido)-4-((6,7-dihydro-5H-benzo[b][1,2,4]triazolo[3,4-d][1,5]oxazocin-9-yl)amino)-N-methylpyridazine-3-carboxamide], for which the IC50 in experiment [1] and in experiment [2] was over 1000 nM each time.
